Data reported in US9220676B2, “Injectable in-situ crosslinked hydrogel and methods of making and using thereof” (Bioregen Biomedical (Changzhou) Co., Ltd., priority 2008, dated 2015).

Assay: Release of corticosteroid from drug-containing in-situ crosslinked sodium hyaluronate hydrogel into phosphate buffer solution
Type: physicochemical
Conditions: for cumulative releasing percentage of the drug: 0.2 mL gel in 10 mL phosphate buffer solution, 37° C., 100 rpm, UV absorption of supernatant; for release of the drug from the gel (in words): summary of the release table
Method: Into the 10 mL thiolated sodium hyaluronate solution prepared in Example 1 (pH 7.0, 1.0% w/v), 0.1-10 mg one type of corticosteroid (e.g. Beclomethasone, Beclomethasone dipropionate, Budesonide; Dexamethasone, Prednisolone or Prednisone) was added. The solution was mix uniformly and immediately filled into a 1 mL syringe which was then sealed and kept at room temperature. It was observed after one week that the solution sealed in the syringe had lost fluidity to form a gel.
0.2 mL gel containing drug as described above was filled into a 15 mL plastic centrifugal tube; 10 mL phosphate buffer solution was added into the centrifugal tube which was then put in an incubator (37° C., 100 rpm); ultraviolet absorption of the drug in the supernatant was recorded at a certain time interval.
The cumulative releasing percentages of the drug at different times are as below: […]

| cumulative releasing percentage of the drug (day 7) | cumulative releasing percentage of the drug (day 14) | cumulative releasing percentage of the drug (day 21) | SMILES | release of the drug from the gel (in words) |
| --- | --- | --- | --- | --- |
| <1% | <1% | <1% | CCC(=O)OCC(=O)[C@@]1(OC(=O)CC)[C@@H](C)C[C@H]2[C@@H]3CCC4=CC(=O)C=C[C@]4(C)[C@@]3(Cl)[C@@H](O)C[C@@]21C [Beclomethasone dipropionate] | release was rarely detected |
| 95% | 100% | 100% | C[C@]12C=CC(=O)C=C1CC[C@@H]1[C@@H]2[C@@H](O)C[C@@]2(C)[C@H]1CC[C@]2(O)C(=O)CO [Prednisolone] | released substantially completely in 7 days |
| 61% | 82% | 91% | C[C@H]1C[C@H]2[C@@H]3CCC4=CC(=O)C=C[C@]4(C)[C@@]3(Cl)[C@@H](O)C[C@]2(C)[C@@]1(O)C(=O)CO [Beclomethasone] | – |
| 82% | 95% | 100% | C[C@]12C=CC(=O)C=C1CC[C@@H]1[C@@H]2C(=O)C[C@@]2(C)[C@H]1CC[C@]2(O)C(=O)CO [Prednisone] | – |
